Results taken from ChEMBL document CHEMBL1152341, “Polyacetylenes from sardinian Oenanthe fistulosa: a molecular clue to risus sardonicus” (J Nat Prod, 2009).

Experiments:
[1] = (§1) Antagonist activity at GABAA receptor in Wistar rat neuronal cells assessed inhibition of GABA-evoked response by patch-clamp technique; type: functional, cell-based
neuronal = test: as §1; type: functional, cell-based

| SMILES | EC50 [1] [µM] | Activity (neuronal) |
| --- | --- | --- |
| CCC[C@@H](O)CC/C=C/C=C/C#CC#CCCCO [DIHYDROOENANTHOTOXIN] | 0.835 |  |
| CCC[C@@H](O)CC/C=C/C=C/C#CC#C/C=C/CO [OENANTHOTOXIN] | 1.39 | Dose-dependent effect |
